# Earlier results, collected in patent US11642396B2 (priority 2013, dated 2023).
# System: H7N9 infection
# Details: human, in vivo
smiles,measurement,value
CCOC(=O)C1=C[C@@H](OC(CC)CC)[C@H](NC(C)=O)[C@@H](N)C1 [oseltamivir],viral load in the respiratory tract of patients,reduce the viral load
